Measurements: ChEMBL document CHEMBL1201862, “PubChem BioAssay data set” (2004)
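Cultured in 96-well plates, cells were exposed to test compound for 48 hours across five concentrations. GI50 = concentration required for 50% inhibition of growth.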 Calls of active or inactive are those of the source. No stated cut-off is given here; in the data, active = GI50 up to about 1.1 µM and inactive = higher.

How the values were obtained:
Test in all cases: NCI anticancer screen, dose series, 48 h
NCI-H226 = test system: NCI-H226
SK-MEL-28 = test system: SK-MEL-28
EKVX = test system: EKVX
UACC-62 = test system: UACC-62
HOP-92 = test system: HOP-92
TK-10 = test system: TK-10
K562 = test system: K562
UACC-257 = test system: UACC-257
786-0 = test system: 786-0
OVCAR-8 = test system: OVCAR-8
A498 = test system: A498
ACHN = test system: ACHN
LOX IMVI = test system: LOX IMVI
SN12C = test system: SN12C
SF-539 = test system: SF-539
SW-620 = test system: SW-620
SK-MEL-5 = test system: SK-MEL-5
KM12 = test system: KM12
RXF 393 = test system: RXF 393
HT-29 = test system: HT-29

Measured: GI50

COP(=O)(OC)C(=O)N1N(c2ccc([N+](=O)[O-])cc2)C(=O)C(C)NC1(NNc1ccc([N+](=O)[O-])cc1)P(=O)(OC)OC (stereo not drawn)
inactive: NCI-H226 > 100 µM | SK-MEL-28 > 100 µM | EKVX > 100 µM | UACC-62 > 100 µM | HOP-92 > 100 µM | TK-10 > 100 µM | K562 > 100 µM | UACC-257 > 100 µM | 786-0 > 100 µM | OVCAR-8 > 100 µM | A498 > 100 µM | ACHN > 100 µM | LOX IMVI > 100 µM | SN12C > 100 µM | SF-539 > 100 µM | SW-620 > 100 µM | SK-MEL-5 > 100 µM | KM12 > 100 µM

COc1cc(S(=O)(=O)Nc2nc(-c3ccc(N4C(=O)C(CC(=O)O)SC4c4cccs4)cc3)cs2)ccc1Cl (stereo not drawn)
inactive: NCI-H226 > 100 µM | SK-MEL-28 70.1 µM | UACC-62 23.4 µM | HOP-92 30.9 µM | TK-10 79.4 µM | K562 39 µM | RXF 393 15.7 µM | UACC-257 41.9 µM | 786-0 41.8 µM | OVCAR-8 39 µM | A498 > 100 µM | ACHN > 100 µM | LOX IMVI 20.3 µM | SN12C 30.3 µM | HT-29 > 100 µM | SF-539 27.9 µM | SW-620 28.9 µM | SK-MEL-5 > 100 µM | KM12 36.9 µM

O=C(N/N=C/c1ccccc1O)N/N=C/c1ccccc1O
inactive: NCI-H226 > 100 µM | SK-MEL-28 > 100 µM | EKVX > 100 µM | UACC-62 > 100 µM | HOP-92 > 100 µM | TK-10 > 100 µM | K562 > 100 µM | RXF 393 > 100 µM | UACC-257 > 100 µM | 786-0 > 100 µM | OVCAR-8 > 100 µM | A498 > 100 µM | ACHN > 100 µM | LOX IMVI > 100 µM | SN12C > 100 µM | HT-29 > 100 µM | SF-539 > 100 µM | SW-620 > 100 µM

CC(=O)C(=N\Nc1ccc(Cl)cc1)/C(C)=N/c1ccc(C)cc1
inactive: NCI-H226 29.6 µM | SK-MEL-28 48.8 µM | EKVX 21.3 µM | UACC-62 49.1 µM | HOP-92 16.6 µM | TK-10 33.5 µM | K562 33 µM | RXF 393 23 µM | UACC-257 53.2 µM | 786-0 37.2 µM | OVCAR-8 35.6 µM | A498 11.9 µM | ACHN 21.9 µM | LOX IMVI 45 µM | SN12C 45.7 µM | HT-29 22.5 µM | SW-620 41.6 µM | SK-MEL-5 19 µM | KM12 27.1 µM

CCN(CC)CCNc1ccc2ncn3c4ccccc4c(=O)c1c23
inactive: NCI-H226 2.18 µM | SK-MEL-28 4.12 µM | UACC-62 3.91 µM | HOP-92 2.28 µM | TK-10 7.41 µM | K562 8.49 µM | UACC-257 4.23 µM | 786-0 3.43 µM | OVCAR-8 2.77 µM | A498 6.7 µM | ACHN 2.24 µM | LOX IMVI 1.64 µM | SN12C 5.36 µM | HT-29 2.2 µM | SF-539 5.86 µM | SW-620 2.52 µM | SK-MEL-5 3.52 µM | KM12 5.2 µM

COc1ccc(OC)c2c(C)ccnc12
inactive: NCI-H226 25.5 µM | SK-MEL-28 36.6 µM | EKVX 14.3 µM | UACC-62 25.3 µM | HOP-92 18.6 µM | TK-10 81.7 µM | K562 > 37.7 µM | RXF 393 16.1 µM | UACC-257 33.7 µM | 786-0 22.3 µM | OVCAR-8 14.9 µM | A498 56.8 µM | ACHN 18.3 µM | LOX IMVI 5.28 µM | SN12C 22.1 µM | HT-29 17.1 µM | SW-620 10.5 µM | SK-MEL-5 22.2 µM | KM12 37.2 µM

COC(=O)C1CCC(N2C(=O)CCC2C(=O)OC)=N1 (stereo not drawn)
inactive: NCI-H226 > 100 µM | SK-MEL-28 > 100 µM | EKVX > 100 µM | UACC-62 > 100 µM | HOP-92 > 100 µM | TK-10 > 100 µM | K562 > 100 µM | UACC-257 > 100 µM | 786-0 > 100 µM | OVCAR-8 > 100 µM | A498 > 100 µM | ACHN > 100 µM | LOX IMVI > 100 µM | SN12C > 100 µM | HT-29 > 100 µM | SW-620 > 100 µM | KM12 > 100 µM

O=c1[nH]c2c(O)cccc2c2cc3c(c(O)c12)OCO3 [NARCIPRIMINE]
inactive: NCI-H226 17.4 µM | EKVX 25.8 µM | UACC-62 18.3 µM | HOP-92 13.4 µM | TK-10 42.7 µM | K562 17.5 µM | UACC-257 19.7 µM | 786-0 25.5 µM | OVCAR-8 23.6 µM | A498 21.2 µM | ACHN 15.8 µM | LOX IMVI 11 µM | SN12C 20.7 µM | HT-29 21.2 µM | SF-539 18 µM | SW-620 26.6 µM | SK-MEL-5 17.1 µM | KM12 16.7 µM

CC(=O)O[C@H]1C[C@H]2C(=S)Nc3ccccc3C(=S)N2C1
inactive: NCI-H226 > 100 µM | SK-MEL-28 > 100 µM | EKVX > 100 µM | UACC-62 > 100 µM | HOP-92 > 100 µM | TK-10 > 100 µM | K562 > 100 µM | RXF 393 > 100 µM | UACC-257 > 100 µM | 786-0 > 100 µM | OVCAR-8 > 100 µM | A498 > 100 µM | ACHN > 100 µM | LOX IMVI > 100 µM | SN12C > 100 µM | HT-29 > 100 µM | SW-620 > 100 µM | SK-MEL-5 > 100 µM | KM12 > 100 µM

COc1cc2c(cc1-c1coc3cc(O)ccc3c1=O)OCO2 [CUNEATIN]
inactive: NCI-H226 20.3 µM | SK-MEL-28 45.8 µM | EKVX 34.4 µM | UACC-62 23.6 µM | HOP-92 29 µM | TK-10 20.9 µM | K562 > 100 µM | UACC-257 26 µM | 786-0 15.7 µM | OVCAR-8 19.3 µM | A498 31 µM | ACHN 20.1 µM | LOX IMVI 46.6 µM | SN12C 25.4 µM | HT-29 99.3 µM | SF-539 23.4 µM | SW-620 32.8 µM | SK-MEL-5 37.2 µM | KM12 33.3 µM

OCCN(CCO)c1ccc2c(c1)Cc1ccccc1-2
inactive: NCI-H226 44.4 µM | SK-MEL-28 64.3 µM | EKVX 43.1 µM | UACC-62 37.3 µM | HOP-92 21.9 µM | TK-10 22.1 µM | K562 34 µM | UACC-257 31 µM | 786-0 > 100 µM | OVCAR-8 52.5 µM | A498 35.1 µM | ACHN 32.1 µM | LOX IMVI 29.9 µM | SN12C 52.1 µM | HT-29 18.8 µM | SF-539 42.9 µM | SW-620 64.4 µM | SK-MEL-5 35.7 µM | KM12 38.3 µM

CN1Nc2ccccc2CC1=O
inactive: NCI-H226 > 100 µM | SK-MEL-28 > 100 µM | EKVX > 100 µM | UACC-62 > 100 µM | HOP-92 > 100 µM | TK-10 > 100 µM | K562 > 100 µM | UACC-257 > 100 µM | 786-0 > 100 µM | OVCAR-8 > 100 µM | A498 > 100 µM | ACHN > 100 µM | LOX IMVI > 100 µM | SN12C > 100 µM | HT-29 > 100 µM | SF-539 > 100 µM | SW-620 > 100 µM | SK-MEL-5 > 100 µM | KM12 > 100 µM

COC(=O)C(=O)C(C(=O)C(=O)Nc1ccc(Cl)cc1C)c1nc2ccc(C(=O)c3ccccc3)cc2nc1O (stereo not drawn)
inactive: NCI-H226 33.5 µM | EKVX > 100 µM | UACC-62 61.9 µM | HOP-92 49.8 µM | TK-10 > 100 µM | K562 29 µM | RXF 393 52.2 µM | UACC-257 97.9 µM | 786-0 > 100 µM | OVCAR-8 > 100 µM | A498 21.6 µM | ACHN 76.9 µM | LOX IMVI > 100 µM | SN12C > 100 µM | HT-29 > 100 µM | SF-539 58.5 µM | SW-620 > 100 µM | KM12 63 µM

COc1cc(/C=C2\N=C(c3ccccc3)N(/N=C/c3cc4cc(C)ccc4nc3Cl)C2=O)ccc1O
inactive: SK-MEL-28 > 100 µM | EKVX 37.2 µM | UACC-62 37.7 µM | HOP-92 31.6 µM | TK-10 43.2 µM | K562 45.8 µM | RXF 393 34 µM | UACC-257 49.8 µM | 786-0 37.6 µM | OVCAR-8 49.7 µM | A498 16.6 µM | ACHN 36.6 µM | LOX IMVI 37 µM | SN12C 30 µM | HT-29 33.8 µM | SF-539 35.2 µM | SW-620 39.2 µM | SK-MEL-5 37.2 µM | KM12 37.2 µM

O=C1CCCC(=O)N1n1c(Cc2ccccc2)n[nH]c1=O
inactive: NCI-H226 > 100 µM | SK-MEL-28 > 100 µM | EKVX > 100 µM | UACC-62 > 100 µM | HOP-92 > 100 µM | TK-10 > 100 µM | K562 > 100 µM | RXF 393 > 100 µM | UACC-257 > 100 µM | 786-0 > 100 µM | OVCAR-8 > 100 µM | A498 > 100 µM | ACHN > 100 µM | LOX IMVI > 100 µM | SN12C > 100 µM | HT-29 > 100 µM | SW-620 > 100 µM | SK-MEL-5 > 100 µM | KM12 > 100 µM
